Data from a melting point compilation (Tetko et al.; mined from patent text by program, amines drawn as free bases though some values may be those of a salt).

melting point | Structure (SMILES)
167 to 169 °C | Cc1[nH]c(C(=O)Nc2ccc3[nH]ccc3c2)c(C)c1-c1nc2ccc(C(=O)c3ccccc3)cc2[nH]1
194 to 197 °C | CC1=NS(=O)(=O)N(C)C(Oc2ccc([N+](=O)[O-])cc2)=N1
266 to 268 °C | CCCn1c(=O)c2c(nc(C=Cc3cc(OC)c(OC)cc3S(=O)(=O)N3CCCCC3)n2C)n(CCC)c1=O
200 to 201 °C | COC(=O)C(Cc1ccc(OCc2ccccc2)cc1)NC(=O)c1cc2ccc(-c3ccc(Cl)cc3)cc2s1 (stereo not given)
157 to 158 °C | O=C(O)c1ccc(CCCC2SCC(=O)N2CCC2(O)CCSCC2)cc1 (stereo not given)
140 to 142 °C | CC(=O)C(=Cc1ccc(S(C)(=O)=O)c(Cl)c1)C(C)=O
39 to 41 °C | CCCCCOC(=O)Cc1sc(F)c(N=c2sc(=O)n3n2CCCC3)c1Cl
107 to 109 °C | CC(=O)N1CCC(=O)C(C2c3ccccc3CCc3ccccc32)C1 (stereo not given)
98 to 100 °C | COC(=O)c1ccc(OC)c(OC(C)(C)C)c1
82 to 83 °C | CCN(CC)CCCNC(=O)Cn1ncc(-c2ccc(F)cc2)c1-c1ccccc1
125 to 132 °C | CC(C)C(NC(=O)C(C)(N)c1ccc2ccccc2c1)C(=O)Nc1nn(C(=O)OCc2ccccc2)c(=S)s1 (stereo not given)
38.8 °C | CCCCCCCCCCCCCCCCN(CC(O)CO)C(=O)CCCCC (stereo not given)
179 to 181 °C | CC(=O)c1cc(C(C)=O)cc(S(N)(=O)=O)c1
46 to 48 °C | CC(=O)C(=Cc1ccc(C(F)(F)F)cc1)C(C)=O
155 to 159 °C | Cc1c(Cl)cc(-c2ccc(OC(=O)N3CCOCC3)nn2)cc1Cl
210 °C | O=C(Nc1ccc2ccc(-c3ccc(F)cc3)nc2n1)c1cccc(Br)c1
122 °C | COCN(C(=O)Nc1ccc(Cl)cc1)C(=O)c1c(Cl)cccc1Cl
234 to 236 °C | Cc1nnc(-c2cccc(-c3cnc4[nH]cc(C(=O)C5(C)CCCCC5)c4n3)c2)o1
212 to 215 °C | CC1(C)CC(N2CCCCCC2=O)CC(C)(C)N1O
67 °C | O=[N+]([O-])c1cccc2c1C1OC1CC2 (stereo not given)
129 to 131 °C | COc1ccc(N2CCN(c3c(C)c(C)c4c(c3C)C(=O)C(C)(C)O4)CC2)cc1C
94 to 95 °C | Nc1nc(Cn2ncc3cc(C(=O)NC[C@H](NS(=O)(=O)c4cccc5ccccc45)C(=O)O)ccc32)cc(=O)[nH]1

melting point | Structure (SMILES)
237 to 238 °C | O=C(O)CCc1oc(NC2CCCCC2)nc1-c1ccc(Cl)cc1
141 to 143 °C | CCN(CC)CCNC(=O)c1cc(Cl)c(N)cc1OCCCN1C(=O)c2ccccc2C1=O
73 to 74 °C | Cc1cc(Oc2cccc(C(F)(F)F)c2)nn1C(=O)Nc1ccc(Cl)cc1
128 to 129 °C | CCCCc1nc2c(N)nc3cccnc3c2n1CCCCNC(=O)CSc1ccncc1
184 °C | Cn1cc(-c2cc(F)c(F)c(OC3SCC(O)C(O)C3O)c2)cn1 (stereo not given)
163 to 164 °C | COCC(=O)Nc1cc2c(cc1C#N)C(Nc1ccc(C(=O)OC(C)(C)C)cc1)CC2 (stereo not given)
246 to 247 °C | COc1ccc2ncc(CC(N)C(=O)O)cc2c1 (stereo not given)
231 to 234 °C | O=C(CCc1ccccc1)Nc1c(Cl)ccc2nc(N3CCNCC3)ccc12
148 to 149 °C | Cc1c(NC(=O)c2ccc(OC[C@@H]3CCCO3)cc2F)ccc2cc(CNCC(C)(C)O)[nH]c12
251 to 253 °C | O=C1Nc2cccc(-c3cccc(NC(=O)c4cccc(Br)c4)c3)c2/C1=C/c1ccc[nH]1
108 °C | CC(C)Sc1cc(SC(C)C)c2ccc3c(SC(C)C)cc(SC(C)C)c4ccc1c2c43
227 to 230 °C | CC12CCC3C(CC=C4NC(=O)CCC43C)C1CC=C2I (stereo not given)
84.5 to 86 °C | COC(=O)c1sc2c(c1O)CN(C(=O)OC(C)(C)C)CC2
57 to 60 °C | COc1ccc2c(c1)CCC1=C2CCC2(CC(C)C)C(=O)CC=C12 (stereo not given)
235 to 237 °C | COc1ccc(O)c2c1C(=O)N(Cc1ccccc1)S2=O (stereo not given)
206 °C | Cc1cc(C#Cc2cnn3c(C(F)(F)F)cc(-c4ccc(C(F)(F)F)cc4)nc23)ccn1
90.5 to 91.5 °C | Cc1cc(C(=O)NCCc2ccccc2)n(C)n1
130 to 140 °C | O=C(Oc1ccccc1)c1ccc(NS(=O)(=O)c2ccccc2)cc1Cl
142 to 143 °C | CCOC(=O)c1c(C)c(C(=O)c2ccc(SC)n2C)n2c1C(C(=O)OCC)CC2 (stereo not given)
109 °C | CC(=O)N1CCC(C)(C)c2cccc(CCCN3CCN(c4nsc5ccccc45)CC3)c21
295 to 297 °C | Cn1c(=O)c(-c2ccc(Cl)cc2Cl)cc2c3cc(-c4coc(N)n4)ccc3n(C)c21
80 to 82 °C | CNC=C1C(=O)C(C)(C)OC1(C)C

melting point | Structure (SMILES)
174 to 175 °C | O=C(N[C@H](Cc1ccc(C(F)(F)F)cc1)[C@@H](O)c1ccc(F)cc1)c1ccc2ccccc2c1 (racemic)
203 to 205 °C | CC(C)(C)NCC(O)COc1ccc2c(c1-c1nc(C(F)(F)F)c[nH]1)CCCC2 (stereo not given)
325 °C | Cc1ccc(C2CN(c3cc4c(cc3F)ncc3c4c(=O)c(C(=O)O)cn3C)CCN2)cc1C (stereo not given)
250 to 253 °C | Cc1cc2nn(C)c(=O)n2nc1-c1cccc([N+](=O)[O-])c1
232 to 233 °C | CN1CCN(c2cccc3nc4n(c(=O)c23)-c2ccc(F)cc2C4=O)CC1
178 to 183 °C | CN(Cc1cccc(Cl)c1)c1ccc(C(N)=O)nc1
161 to 162 °C | CCCN(C(=O)OCC(C)C)C1Cc2ccc(C3=NNC(=O)CC3)cc2C1 (stereo not given)
81.5 to 82.5 °C | COc1ccc2cc([C@H](C)C(=O)OCC[Si](C)(C)C)ccc2c1
92 to 95 °C | CC(=O)C(=Cc1cccc([N+](=O)[O-])c1)C(C)=O
118 °C | N#CC(NC(=O)C(F)(F)C(F)(F)F)c1ccc(Cl)cc1 (stereo not given)
203 to 204 °C | COC(=O)C(c1ccc(O)cc1)N1CC(N2C(=O)c3ccccc3C2=O)C1=O (stereo not given)
186 °C | CC(=O)OCCc1ccc(-c2ccc(=O)[nH]n2)cc1
132 to 133 °C | Cc1cc2c(s1)Oc1ccccc1N=C2N1CCN(C)CC1
107 to 109 °C | Cc1c(C)c2c(c(C)c1O)CCC(C)(C(=O)Nc1ccccc1)O2 (stereo not given)
75.5 to 76.5 °C | CCc1ccc(-c2nc(Cl)c3ccccc3n2)cc1
45 °C | COC(=O)c1ccc(C#C[Si](C)(C)C)cn1
119 to 138 °C | CC(=O)OCC(=O)Nc1nc2c(Oc3cc(-c4ccc(C(F)(F)F)cc4)ncn3)cccc2s1
86 to 88 °C | Fc1cc(F)c(-c2ccccc2)c(F)c1F
205 °C | CN1CCN(S(=O)(=O)c2cccc(-c3cc(-c4nc(-c5ccc(C(F)(F)F)cc5)cc(C(F)(F)F)n4)ccn3)c2)CC1
73 to 76 °C | CCCCC(CC)COC(=O)C=CC(=O)NC(N)=O (stereo not given)
133 to 140 °C | CCCCc1nc2c(N)nc3ccccc3c2n1CCOCC#Cc1ccccc1

Structure (SMILES) | melting point
CCOCC(OC(C)=O)C1CC(=O)C2(C)CCC3C(CCC4=CC(=O)C=C(C)C43C)C12 (stereo not given) | 155 to 157 °C
CN(C)Cc1nc(-c2ncn3c2[C@@H]2CCN2C(=O)c2cc(F)ccc2-3)no1 | 150 to 155 °C
CN(C)C1(c2ccc(F)cc2)CCC(=O)CC1 | 128 to 133 °C
O=C1CC(Cc2ccc(Cl)cc2)CN1 (stereo not given) | 95 to 98 °C
Cc1nc2ccc3c(c2o1)OC(CN1CC=C(c2ccccc2)CC1)CO3 (stereo not given) | 170 to 173 °C
